# Reference: publication PMC9945177, “Nature-Derived Epoxy Resin Monomers with Reduced Sensitizing Capacity—Isosorbide-Based Bis-Epoxides” (Chemical Research in Toxicology, 2023)
# Tests used:
# Female CBA/Ca mice = assay: murine local lymph node assay (LLNA); format: in vivo
# Method: Female CBA/Ca mice, 7 to 9 weeks of age, were purchased from NOVA SCB Charles River, Germany. The mice were housed in HEPA-filtered air flow cages and kept on standard laboratory diet and water ad lib. The regional ethics committee, Jordbruksverket, approved the protocol and the procedure was performed in accordance with the guidelines.
# A previously published protocol[24] of the LLNA[34] was used to assess the sensitization potential of the isosorbide bis-epoxides 1–3. The purity of the assessed isosorbide bis-epoxides was >99% (GC/MS or LC/MS) before testing of sensitization potential. The isosorbide bis-epoxides were tested in five different concentrations; 1: 3.9 mM (0.10% w/v), 39 mM (1.0% w/v), 190 mM (5.0% w/v), 390 mM (10% w/v), and 770 mM (20% w/v); 2: 21 mM (1.0% w/v), 54 mM (2.5% w/v), 110 mM (5.0% w/v), 210 mM (10% w/v), and 540 mM (25% w/v); and 3: 2.3 mM (0.10% w/v), 23 mM (1.0% w/v), 110 mM (5.0% w/v), 230 mM (10% w/v), and 460 mM (20% w/v). A detailed description is given in Supporting Information.
# The three isosorbide bis-epoxides were evaluated for sensitization potential in vivo with the murine LLNA (Figure 2). The stimulation index (SI) is defined as the ratio between the dpm/lymph node for the test group and the control group. Test materials that at one or more concentrations cause an SI greater than 3 are considered positive in the LLNA. The estimated concentration required to induce an SI of 3 (EC3) is used to determine the sensitizing potency of the test compound. […] Isosorbide bis-epoxide 1 gave an EC3 value of 0.17 M (4.4%), 3 gave an EC3 value of 0.36 M (16%), and no EC3 value was obtained for 2 (for full results, see the Supporting Information, Table S1).
# A previously published protocol1 of the LLNA2 was used to assess the sensitization potential of the isosorbide bis-epoxides 1-3. The purity of the assessed isosorbide bis-epoxides was >98% according to LC/MS analysis. The isosorbide bis-epoxides were tested in five different concentrations; 1: 3.87 mM […]
# 456 mM (20% w/v). Briefly, mice in groups of three received 25 µL of test compound dissolved in the vehicle acetone/olive oil (4:1 v/v), on the dorsum of the ears for three consecutive days (day 0, 1, and 2). A sixth group of four mice was treated with vehicle only (control group). On day 5, all mice were injected intravenously via the tail vein with 250 µL of phosphate buffered saline (PBS) (pH 7.4, 137 mM NaCl, 2.7 mM KCl, and 10 mM phosphate buffer) containing 20 µCi [methyl-3H]thymidine. Five hours later the mice were sacrificed, the draining lymph nodes were excised and pooled for each group, followed by preparation of single-cell suspensions of lymph nodes in PBS by using cell strainers (Falcon; BD Labware, Franklin Lakes, NJ, USA; pore size, 70 µm). Cell suspensions were washed twice with PBS, precipitated with trichloroacetic acid (TCA) (5%), and stored at 4 °C overnight. The samples were then centrifuged, resuspended in TCA (5%, 1 mL), and transferred to scintillation cocktail (10 mL) (EcoLume INC Radiochemicals, Solon, OH, USA). The incorporation of [methyl-3H]thymidine into DNA was measured by b-scintillation counting with a Beckman LS 6000TA instrument. Results are expressed as the mean dpm/lymph node for each experimental group and as stimulation index (SI). The SI is defined as the ratio between dpm/lymph node for the test group and the control group. Test materials that at one or more concentrations cause an SI greater than 3 are considered positive in the LLNA. EC3 values (the estimated concentration required to induce an SI of 3) were calculated by linear interpolation.
# Results from the Local Lymph Node Assay
# Table S1: Full results from the LLNA of bis-epoxides 1-3a
# Test Test [3H]thymidine SI EC value
# AcPHCKRM = assay: peptide depletion with AcPHCKRM; conditions: peptide 1 mM, test compound 10 mM, DMSO/phosphate buffer pH 7.4 (1:1), room temperature
# Method: Liquid chromatography-mass spectroscopy (LC-MS) analyses of peptide depletion experiments were performed using electrospray ionization (ESI) on a Hewlett-Packard 1100 HPLC/MS (Agilent Technologies, Waldbronn, Germany). The system included a vacuum degasser, a binary pump, an autoinjector, a column thermostat, a diode array detector, and a single quadrupole mass spectrometer. The high-performance liquid chromatography (HPLC) system was equipped with a HyPURITY C18 column (150 × 3 mm i.d., particle size 3 μm, Thermo Hypersil-Keystone, Thermo Electron Corp., Bellafonte, PA, USA). The mobile phase consisted of 0.005% pentafluoropropanoic acid, 0.1% acetic acid, and 5% acetonitrile in water (solvent A) and 0.005% pentafluoropropanoic acid, 0.1% acetic acid, and 50% water in acetonitrile (solvent B). […] The gradient conditions used were as follows: 0-8% B (0-3 min), 8-10% B (3-15 min), 10-100% B (15-18 min), 100% B (18-30 min), 100-0% B (30-30.1 min), 0% B (30.1-40 min). The ESI interface was used in positive ionization mode with the following spray chamber settings: nebulizer pressure, 35 psi; capillary voltage, 3000 V; drying gas temperature, 350 °C; and drying gas flow rate, 12 L/min. The fragmentor voltage was set to 120 V. The mass spectrometer was used in scan mode detecting molecular ions with m/z values ranging from 50 to 1800. All solvents were degassed with argon prior to use.
# [1] = thermogravimetric analysis (TGA) of polymers formed with TETA; format: physicochemical; conditions: polymer cured with TETA, TGA under nitrogen
# Method: Detailed information on the polymerization procedure and the thermogravimetric analysis (TGA) is given in the Supporting Information.
# Pilot experiments using TGA were conducted to investigate the properties of the polymers formed from isosorbide bis-epoxides 1–3 and the commonly used curing agent TETA (Table 2 and Figure 6). The onset of degradation is described by the initial decomposition temperature (IDT) and is an indication of the thermal stability of the cured epoxy resins. The maximum weight loss rate (Rmax) and the temperature (Tmax) at Rmax were taken from the peak values of the thermograms. The activation energies (Ea) for the decomposition of the polymers were calculated from the thermograms based on the Horowitz–Metzger equation.[43],[44]
# [2] = estimated concentration required to induce an SI of 3, linear interpolation
smiles,measurement,setting,value
"C1OC1CO[C@H]1CO[C@H]2[C@@H]1OC[C@H]2OCC1CO1 (stereo partly drawn) [Compound 1, (3R,3aR,6S,6aR)-3,6-O-Bis(3,4-epoxypropyl)-1,4:3,6-dianhydro-D-glucitol]",EC3 value (%),Female CBA/Ca mice; as printed in main text,4.4%
same,sensitizing potency classification,Female CBA/Ca mice; classified by EC3,"moderate (EC3 > 2%, moderate)"
same,EC3 value,Female CBA/Ca mice; [2],0.17 M
same,EC3 value (% w/v),Female CBA/Ca mice; [2],4.40 % w/v
same,SI,Female CBA/Ca mice; test concentration 0.10% w/v,0.82
same,[3H]thymidine incorporation (dpm/lymph node),Female CBA/Ca mice; test concentration 0.10% w/v,213 dpm/lymph node
same,SI,Female CBA/Ca mice; test concentration 1.0% w/v,1.41
same,[3H]thymidine incorporation (dpm/lymph node),Female CBA/Ca mice; test concentration 1.0% w/v,367 dpm/lymph node
same,SI,Female CBA/Ca mice; test concentration 5.0% w/v,3.28
same,[3H]thymidine incorporation (dpm/lymph node),Female CBA/Ca mice; test concentration 5.0% w/v,852 dpm/lymph node
same,SI,Female CBA/Ca mice; test concentration 10% w/v,12.2
same,[3H]thymidine incorporation (dpm/lymph node),Female CBA/Ca mice; test concentration 10% w/v,3164 dpm/lymph node
same,SI,Female CBA/Ca mice; test concentration 20% w/v,15.8
same,[3H]thymidine incorporation (dpm/lymph node),Female CBA/Ca mice; test concentration 20% w/v,4121 dpm/lymph node
same,reactivity with the model peptide AcPHCKRM,AcPHCKRM,highest reactivity
same,Ea (activation energy for the decomposition of the cured epoxy resins),[1],66.9 kcal/mol
same,IDT (initial decomposition temperature),[1],362 °C
same,Rmax (maximum weight loss rate),[1],–3.24 %/°C
same,Tmax (temperature at the maximum rate of weight loss),[1],380 °C
